Laboratory results reported in patent US20080233208A1, “USE OF ERIANIN IN PREPARING PHARMACEUTICAL FOR TREATING TUMORS” (The Jiang Cell Biomedical Research Co., Ltd., priority 2007, published 2008).

Columns and labels:
Lewis lung cancer = assay: Tumor inhibition in murine model with Lewis lung cancer; assay type: in vivo, C57BL/6J mice; settings: for Tumor inhibiting rate / Tumor weight: 19th day after inoculation
[1] = mice bearing Lewis lung cancer, i.p. x 10 qd
[2] = in vivo; cited from earlier work
[3] = test system: human leukemia HL-60 cells; settings: cited from earlier work
liver cancer of mouse = settings: cited from earlier work
tumor cell strain K256 = settings: among dihydrobibenzyls and phenanthrenes in Dendrobium chrysotoxum; cited from earlier work
[4] = compared with 5FU; cited from earlier work

Q: Which Tumor inhibiting rate (Lewis lung cancer; 30 mg/kg i.p. x 10 qd) does the source give for `O=P1(N(CCCl)CCCl)NCCCO1` (stereo not shown) [CTX, Cyclophosphamide, reference compound] here?
A: 63.2%

Q: What about the Tumor weight (Lewis lung cancer; 30 mg/kg i.p. x 10 qd) of the same molecule?
A: 0.96 ± 0.13

Q: And the “General condition of the mice (signs of toxicity)” value [1]?
A: signs of athrepsia, listlessness, and pilo-erection

Q: Which LD50 [2] does the source give for `COc1ccc(/C=C\c2cc(OC)c(OC)c(OC)c2)cc1O` [Combretastatin A-4] here?
A: 500 mg/kg

Q: Which Tumor inhibiting rate (Lewis lung cancer; 1 mg/kg i.p. x 10 qd) does the source give for `N.N.[Cl][Pt][Cl]` [DDP, Cisplatin, reference compound] here?
A: 51.4%

Q: And the Tumor weight (Lewis lung cancer; 1 mg/kg i.p. x 10 qd)?
A: 1.26 ± 0.15

Q: For `COc1ccc(CCc2cc(OC)c(OC)c(OC)c2)cc1O` [Erianin], which “inhibition of growth of HL-60 cells” value [3] is on record?
A: significantly inhibited

Q: And the tumor inhibitory rate (liver cancer of mouse)?
A: 50.82%

Q: And the “inhibitory effect on the growth of tumor cell strain K256” value (tumor cell strain K256)?
A: most active

Q: What about the toxic side effect [4] of the same molecule?
A: far lower than 5FU

Q: And the Tumor inhibiting rate (Lewis lung cancer; 50 mg/kg i.p. x 10 qd)?
A: 38.8%

Q: And the Tumor weight (Lewis lung cancer; 50 mg/kg i.p. x 10 qd)?
A: 1.59 ± 0.26

Q: And the Tumor inhibiting rate (Lewis lung cancer; 100 mg/kg i.p. x 10 qd)?
A: 46.0%

Q: And the Tumor weight (Lewis lung cancer; 100 mg/kg i.p. x 10 qd)?
A: 1.40 ± 0.31

Q: And the Tumor inhibiting rate (Lewis lung cancer; 200 mg/kg i.p. x 10 qd)?
A: 55.6%

Q: What about the Tumor weight (Lewis lung cancer; 200 mg/kg i.p. x 10 qd) of the same molecule?
A: 1.15 ± 0.14

Q: And the “Result assessment of tumor inhibiting effect” value (Lewis lung cancer; mice bearing Lewis lung cancer, in words)?
A: quite effective

Q: And the Death [1]?
A: no death occurred

Q: And the “General condition of the mice (signs of toxicity)” value [1]?
A: normal appetite, bright hair and free movements
